Results as given in the supplement of paper PMC10307832.

Columns and labels:
Experiment in all cases: relative viability (nuclei count vs DMSO), 5 days (fraction); higher = more cells survive
[1] = compound: CCN(CCO)CCCC(C)Nc1ccnc2cc(Cl)ccc12 [Hydroxychloroquine] + CC(C)C[C@H](NC(=O)[C@H](Cc1ccccc1)NC(=O)c1cnccn1)B(O)O [Bortezomib] (partner 0.002 µM)
In short: (§1)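 A single step with final 0.05% Triton X-100, 1% formaldehyde and 1 ug/ml Hoechst fixed the cells and stained nuclei 5 days after treatment. Lung cancer cell lines in 1536-well plates had been treated by pin tool the day after seeding with one drug alone or a fixed anchor-drug dose plus five library-drug doses (not always all listed) in √10 steps, and nuclei were counted on 4× images. Relative viability is the ratio of nuclei in treated wells to nuclei in vehicle wells, taken as the median of duplicate plates.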

[2] = compound: CCN(CCO)CCCC(C)Nc1ccnc2cc(Cl)ccc12 [Hydroxychloroquine] + CS(=O)(=O)N1CCN(Cc2cc3nc(-c4cccc5[nH]ncc45)nc(N4CCOCC4)c3s2)CC1 [Pictilisib] (partner 1 µM)
In short: as §1

[3] = compound: CCN(CCO)CCCC(C)Nc1ccnc2cc(Cl)ccc12 [Hydroxychloroquine] + O=C(c1cc(Cc2n[nH]c(=O)c3ccccc23)ccc1F)N1CCN(C(=O)C2CC2)CC1 [Olaparib] (partner 8 µM)
In short: as §1

[4] = compound: CCN(CCO)CCCC(C)Nc1ccnc2cc(Cl)ccc12 [Hydroxychloroquine] + CC(=O)Nc1cccc(-n2c(=O)n(C3CC3)c(=O)c3c(Nc4ccc(I)cc4F)n(C)c(=O)c(C)c32)c1 [Trametinib] (partner 0.02 µM)
In short: as §1

ChaGo-K-1
relative viability ([1]; first compound 0.5 µM): 1.04
relative viability ([1]; first compound 1.581 µM): 0.895
relative viability ([1]; first compound 5 µM): 0.687
relative viability ([1]; first compound 15.81 µM): 1.06
relative viability ([1]; first compound 50 µM): 1.02
relative viability ([2]; first compound 0.5 µM): 0.873
relative viability ([2]; first compound 1.581 µM): 0.506
relative viability ([2]; first compound 5 µM): 0.383
relative viability ([2]; first compound 15.81 µM): 0.662
relative viability ([2]; first compound 50 µM): 0.64
relative viability ([3]; first compound 0.5 µM): 0.385
relative viability ([3]; first compound 1.581 µM): 0.381
relative viability ([3]; first compound 5 µM): 0.422
relative viability ([3]; first compound 15.81 µM): 0.4
relative viability ([3]; first compound 50 µM): 0.422
relative viability ([4]; first compound 0.5 µM): 0.962
relative viability ([4]; first compound 1.581 µM): 0.916
relative viability ([4]; first compound 5 µM): 0.865
relative viability ([4]; first compound 15.81 µM): 0.853
relative viability ([4]; first compound 50 µM): 0.891

EBC-1
relative viability ([1]; first compound 0.5 µM): 0.471
relative viability ([1]; first compound 1.581 µM): 0.51
relative viability ([1]; first compound 5 µM): 0.505
relative viability ([1]; first compound 15.81 µM): 0.519
relative viability ([1]; first compound 50 µM): 0.459
relative viability ([2]; first compound 0.5 µM): 0.367
relative viability ([2]; first compound 1.581 µM): 0.307
relative viability ([2]; first compound 5 µM): 0.374
relative viability ([2]; first compound 15.81 µM): 0.354
relative viability ([2]; first compound 50 µM): 0.295
relative viability ([3]; first compound 0.5 µM): 0.711
relative viability ([3]; first compound 1.581 µM): 0.766
relative viability ([3]; first compound 5 µM): 0.722
relative viability ([3]; first compound 15.81 µM): 0.772
relative viability ([3]; first compound 50 µM): 0.573

EKVX
relative viability ([1]; first compound 0.5 µM): 1.26
relative viability ([1]; first compound 1.581 µM): 0.925
relative viability ([1]; first compound 5 µM): 1.04
relative viability ([1]; first compound 15.81 µM): 0.916
relative viability ([1]; first compound 50 µM): 1.09
relative viability ([2]; first compound 0.5 µM): 0.458
relative viability ([2]; first compound 1.581 µM): 0.383
relative viability ([2]; first compound 5 µM): 0.476
relative viability ([2]; first compound 15.81 µM): 0.427
relative viability ([2]; first compound 50 µM): 0.476
relative viability ([3]; first compound 0.5 µM): 0.978
relative viability ([3]; first compound 1.581 µM): 0.755
relative viability ([3]; first compound 5 µM): 0.769
relative viability ([3]; first compound 15.81 µM): 0.763
relative viability ([3]; first compound 50 µM): 1.04
relative viability ([4]; first compound 0.5 µM): 0.348
relative viability ([4]; first compound 1.581 µM): 0.302
relative viability ([4]; first compound 5 µM): 0.316
relative viability ([4]; first compound 15.81 µM): 0.637
relative viability ([4]; first compound 50 µM): 0.352

EMC-BAC-2
relative viability ([1]; first compound 0.5 µM): 0.981
relative viability ([1]; first compound 1.581 µM): 1.03
relative viability ([1]; first compound 5 µM): 1.06
relative viability ([1]; first compound 15.81 µM): 1.12
relative viability ([1]; first compound 50 µM): 1.17
relative viability ([2]; first compound 0.5 µM): 0.593
relative viability ([2]; first compound 1.581 µM): 0.417
relative viability ([2]; first compound 5 µM): 0.547
relative viability ([2]; first compound 15.81 µM): 0.55
relative viability ([2]; first compound 50 µM): 0.612
relative viability ([3]; first compound 0.5 µM): 0.508
relative viability ([3]; first compound 1.581 µM): 0.439
relative viability ([3]; first compound 5 µM): 0.472
relative viability ([3]; first compound 15.81 µM): 0.484
relative viability ([3]; first compound 50 µM): 0.442
relative viability ([4]; first compound 0.5 µM): 0.917
relative viability ([4]; first compound 1.581 µM): 0.694
relative viability ([4]; first compound 5 µM): 0.85
relative viability ([4]; first compound 15.81 µM): 0.784
relative viability ([4]; first compound 50 µM): 0.753

EPLC-272H
relative viability ([1]; first compound 0.5 µM): 0.762
relative viability ([1]; first compound 1.581 µM): 0.579
relative viability ([1]; first compound 5 µM): 0.736
relative viability ([1]; first compound 15.81 µM): 0.861
relative viability ([1]; first compound 50 µM): 1.08
relative viability ([2]; first compound 0.5 µM): 0.282
relative viability ([2]; first compound 1.581 µM): 0.246
relative viability ([2]; first compound 5 µM): 0.333
relative viability ([2]; first compound 15.81 µM): 0.297
relative viability ([2]; first compound 50 µM): 0.349
relative viability ([3]; first compound 1.581 µM): 0.891
relative viability ([3]; first compound 5 µM): 0.94
relative viability ([3]; first compound 15.81 µM): 0.929
relative viability ([3]; first compound 50 µM): 0.73
relative viability ([4]; first compound 0.5 µM): 0.272
relative viability ([4]; first compound 1.581 µM): 0.311
relative viability ([4]; first compound 5 µM): 0.273
relative viability ([4]; first compound 15.81 µM): 0.271
relative viability ([4]; first compound 50 µM): 0.298

H3255
relative viability ([1]; first compound 0.5 µM): 0.835
relative viability ([1]; first compound 1.581 µM): 0.743
relative viability ([1]; first compound 5 µM): 0.722
relative viability ([1]; first compound 15.81 µM): 0.68
relative viability ([1]; first compound 50 µM): 0.702
relative viability ([2]; first compound 0.5 µM): 0.513
relative viability ([2]; first compound 1.581 µM): 0.517
relative viability ([2]; first compound 5 µM): 0.462
relative viability ([2]; first compound 15.81 µM): 0.474
relative viability ([2]; first compound 50 µM): 0.507
relative viability ([3]; first compound 0.5 µM): 0.592
relative viability ([3]; first compound 1.581 µM): 0.562
relative viability ([3]; first compound 5 µM): 0.544
relative viability ([3]; first compound 15.81 µM): 0.582
relative viability ([3]; first compound 50 µM): 0.55
relative viability ([4]; first compound 0.5 µM): 0.695
relative viability ([4]; first compound 1.581 µM): 0.614
relative viability ([4]; first compound 5 µM): 0.546
relative viability ([4]; first compound 15.81 µM): 0.854
relative viability ([4]; first compound 50 µM): 0.665

HARA
relative viability ([1]; first compound 0.5 µM): 1.1
relative viability ([1]; first compound 1.581 µM): 1.19
relative viability ([1]; first compound 5 µM): 1.02
relative viability ([1]; first compound 15.81 µM): 1.13
relative viability ([1]; first compound 50 µM): 1.06
relative viability ([2]; first compound 0.5 µM): 0.316
relative viability ([2]; first compound 1.581 µM): 0.383
relative viability ([2]; first compound 5 µM): 0.508
relative viability ([2]; first compound 15.81 µM): 0.407
relative viability ([2]; first compound 50 µM): 0.362
relative viability ([3]; first compound 0.5 µM): 0.64
relative viability ([3]; first compound 1.581 µM): 0.838
relative viability ([3]; first compound 5 µM): 1.04
relative viability ([3]; first compound 15.81 µM): 1.14
relative viability ([3]; first compound 50 µM): 0.487
relative viability ([4]; first compound 0.5 µM): 0.725
relative viability ([4]; first compound 1.581 µM): 0.975
relative viability ([4]; first compound 5 µM): 0.88
relative viability ([4]; first compound 15.81 µM): 0.704
relative viability ([4]; first compound 50 µM): 0.613

HCC-15
relative viability ([1]; first compound 0.5 µM): 0.951
relative viability ([1]; first compound 1.581 µM): 0.918
relative viability ([1]; first compound 5 µM): 1.08
relative viability ([1]; first compound 15.81 µM): 1.09
relative viability ([1]; first compound 50 µM): 1.2
relative viability ([2]; first compound 0.5 µM): 0.773
relative viability ([2]; first compound 1.581 µM): 0.668
relative viability ([2]; first compound 5 µM): 0.749
relative viability ([2]; first compound 15.81 µM): 0.744
relative viability ([2]; first compound 50 µM): 0.659
relative viability ([3]; first compound 0.5 µM): 0.688
relative viability ([3]; first compound 1.581 µM): 0.675
relative viability ([3]; first compound 5 µM): 0.735
relative viability ([3]; first compound 15.81 µM): 0.817
relative viability ([3]; first compound 50 µM): 0.626
relative viability ([4]; first compound 0.5 µM): 0.4
relative viability ([4]; first compound 1.581 µM): 0.387
relative viability ([4]; first compound 5 µM): 0.351
relative viability ([4]; first compound 15.81 µM): 0.38
relative viability ([4]; first compound 50 µM): 0.311

HCC-44
relative viability ([1]; first compound 0.5 µM): 0.875
relative viability ([1]; first compound 1.581 µM): 0.865
relative viability ([1]; first compound 5 µM): 0.883
relative viability ([1]; first compound 15.81 µM): 0.914
relative viability ([1]; first compound 50 µM): 0.955
relative viability ([2]; first compound 0.5 µM): 0.475
relative viability ([2]; first compound 1.581 µM): 0.61
relative viability ([2]; first compound 5 µM): 0.588
relative viability ([2]; first compound 15.81 µM): 0.552
relative viability ([2]; first compound 50 µM): 0.661
relative viability ([3]; first compound 0.5 µM): 0.964
relative viability ([3]; first compound 1.581 µM): 1.02
relative viability ([3]; first compound 5 µM): 1.03
relative viability ([3]; first compound 15.81 µM): 1.01
relative viability ([3]; first compound 50 µM): 1.04
relative viability ([4]; first compound 0.5 µM): 1.07
relative viability ([4]; first compound 1.581 µM): 1.04
relative viability ([4]; first compound 5 µM): 1.14
relative viability ([4]; first compound 15.81 µM): 1.08
relative viability ([4]; first compound 50 µM): 1.1
